“And” between values parts separate entries of the source, which are not always exact repeats. Equal entries are not always repeated. “Also recorded” adds a separate entry of the source.
Legend:
[1] = test system: membranes free of GM1 and GTIB; type: binding
GM1 [2] = type: binding, bovine; set-up: Ei (effective interaction energy): unit not given here
GTIB [3] = type: binding, bovine
GM1 [4] = type: binding, bovine; details: read-out: effective dissociation constant
GTIB [5] = type: binding, bovine; details: read-out: effective dissociation constant

Substance	Ei (effective interaction energy) [1]	detection signal / binding in selectivity series [1]	Ei (effective interaction energy) (GM1 [2])	colloidal phase response (condensed to dispersed transition) (GM1 [2])	Ei (effective interaction energy) (GTIB [3])	colloidal phase response (condensed to dispersed transition) (GTIB [3])	detection signal / binding in selectivity series (GM1 [2])	first peak in the g(r) plot (GM1 [2])	Kd (GM1 [4])	Kd (GTIB [5])	detection signal / binding in selectivity series (GTIB [3])	first peak in the g(r) plot (GTIB [3])
α-Bungarotoxin [BT]	2.67 ± 0.10	Negative signals	2.84 ± 0.02	no effect	2.71 ± 0.08	no effect						
Cholera Toxin B-subunit [CTB]	2.52 ± 0.09	Negative signals; also recorded: absence of binding	0.56 ± 0.12	triggered the transition to a dispersed phase; also recorded: induces the transition	2.47 ± 0.09	without producing any effect; also recorded: no effect	positive signal; also recorded: detected binding	noticeably absent	~0.041 µM and ~0.06 µM			
tetanus toxin [TT]	2.61 ± 0.05	Negative signals	2.63 ± 0.05	no effect		triggered formation of a dispersed phase; also recorded: induces a condensed to dispersed phase transition	Negative signals			~0.06 µM and ~0.041 µM	positive signal; also recorded: detected binding	noticeably absent

Source: patent US8114602B2 (priority 2003, dated 2012)
